Experimental data reported in US11000033B2, “Ketone or oxime compound, and herbicide” (NISSAN CHEMICAL CORPORATION, priority 2014, dated 2021).

Columns and labels:
Assay type in all cases: in vivo
Monochoria vaginalis = experiment: Test Example 1: herbicidal activity, application before weed generation in submerged conditions (symbol C); conditions: application herbicide amount 320 g/ha
In short: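 Mixed weed seeds sown in alluvial soil under 4 cm of water, with rice seedlings at the 2.5-leaf stage added. Same-day treatment: emulsion diluted to a set herbicide amount onto the water. Three weeks at 25–30 °C, then graded on a six-step scale.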

[1] = test system: Echinochloa oryzacola Vasing.; experiment: Test Example 2: herbicidal activity, application during weed generation in submerged conditions (symbol A); conditions: Table 23; application herbicide amount 320 g/ha; grade 0-5 by criteria of Test Example 1
In short: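 Paddy pot test, submerged (4 cm water), alluvial soil, mixed sowing; greenhouse 25–30° C. Emulsion formulation diluted to predetermined rate, applied onto floodwater at 1–2 leaf stage. Visual herbicidal rating at 3 wk post-treatment.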

Leptochloa chinensis = experiment: Test Example 3: herbicidal effect by foliage application, Wagner pot (symbol D); conditions: application herbicide amount 320 g/ha
In short: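 Foliar spray of water-diluted emulsion formulation at a predetermined herbicide amount onto 14-day-old plants in flooded alluvial soil (water depth 0.1–0.5 cm), greenhouse 25–30 °C; rice sown alongside. Scored 3 wk post-application on set criteria.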

Digitaria ciliaris = experiment: Test Example 4: herbicidal effect by soil treatment (symbol F)
In short: (§1)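 Seeds were sown in sterilized diluvial soil, covered with about 1.5 cm of soil, and the soil surface was sprayed with a water-diluted emulsion of the compound at a predetermined rate. Plants grew in a greenhouse at 25° C. to 30° C.; effects were scored visually 3 weeks after application.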

Setaria viridis = experiment: Test Example 4: herbicidal effect by soil treatment (symbol G)
In short: as §1

Chenopodium album [2] = experiment: Test Example 4: herbicidal effect by soil treatment (symbol O)
In short: as §1

Apera spica-venti = experiment: Test Example 5: herbicidal effect by foliage application, plastic box (symbol L); conditions: 320 g/ha, 3 weeks after application
In short: (§2)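 Greenhouse foliar test: seedlings at 14 days, grown 25° C. to 30° C. in sterilized diluvial soil; compound applied as an aqueous dilution of an emulsion; response read 3 weeks after spraying.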

Abutilon theophrasti = experiment: Test Example 5: herbicidal effect by foliage application, plastic box (symbol M); conditions: 320 g/ha, 3 weeks after application
In short: as §2

Amaranthus retroflexus = experiment: Test Example 5: herbicidal effect by foliage application, plastic box (symbol N); conditions: 320 g/ha, 3 weeks after application
In short: as §2

Chenopodium album [3] = experiment: Test Example 5: herbicidal effect by foliage application, plastic box (symbol O); conditions: 320 g/ha, 3 weeks after application
In short: as §2

Galium spurium = experiment: Test Example 5: herbicidal effect by foliage application, plastic box (symbol Q); conditions: 320 g/ha, 3 weeks after application
In short: as §2

corn = experiment: Test Example 5: effect on crop by foliage application, plastic box (symbol c); conditions: 320 g/ha, 3 weeks after application
In short: (§3)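 Sterilized diluvial soil, plastic box (21 × 13 × 7 cm); spot sowing, ~1.5 cm soil cover; greenhouse 25–30° C.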

soybean = experiment: Test Example 5: effect on crop by foliage application, plastic box (symbol d); conditions: 320 g/ha, 3 weeks after application
In short: as §3

beet = experiment: Test Example 5: effect on crop by foliage application, plastic box (symbol f); conditions: 320 g/ha, 3 weeks after application
In short: as §3

rapeseed = experiment: Test Example 5: effect on crop by foliage application, plastic box (symbol g); conditions: 320 g/ha, 3 weeks after application
In short: as §3

[4] = application herbicide amount 320 g/ha

Row | Structure (SMILES) | Herbicidal effect grade, C: Monochoria vaginalis (Monochoria vaginalis) | Herbicidal effect grade, A: Echinochloa oryzacola Vasing. [1] | herbicidal effect on D (Leptochloa chinensis), grade 0-5 (Leptochloa chinensis) | F: Digitaria ciliaris, herbicidal effect grade (Digitaria ciliaris; [4]) | G: Setaria viridis, herbicidal effect grade (Setaria viridis; [4]) | O: Chenopodium album, herbicidal effect grade (Chenopodium album [2]; [4]) | L: Apera spica-venti, herbicidal effect grade (Apera spica-venti) | M: Abutilon theophrasti, herbicidal effect grade (Abutilon theophrasti) | N: Amaranthus retroflexus, herbicidal effect grade (Amaranthus retroflexus) | O: Chenopodium album, herbicidal effect grade (Chenopodium album [3]) | Q: Galium spurium, herbicidal effect grade (Galium spurium) | c: corn, effect on crop grade (corn) | d: soybean, effect on crop grade (soybean) | f: beet, effect on crop grade (beet) | g: rapeseed, effect on crop grade (rapeseed) | F: Digitaria ciliaris, herbicidal effect grade (Digitaria ciliaris; 320 g/ha) | G: Setaria viridis, herbicidal effect grade (Setaria viridis; 320 g/ha) | O: Chenopodium album, herbicidal effect grade (Chenopodium album [2]; 320 g/ha) | other results
1 | CCc1cc(-n2cc(Cl)cn2)cc(C)c1C1=C(O)CC(CC(C)=NOC)C1=O (mixture of isomers) [6-005] | 3 (Herbicidal ratio of 40% or higher and lower than 70%) | 5 (Herbicidal ratio of 90% or more (almost completely withered)) | 5 (Herbicidal ratio of 90% or more (almost completely withered)) | 5 (Herbicidal ratio of 90% or more (almost completely withered)) | 5 (Herbicidal ratio of 90% or more (almost completely withered)) | 0 (Herbicidal ratio of 5% or lower (almost no effect)) | 5 (Herbicidal ratio of 90% or more (almost completely withered)) | 5 (Herbicidal ratio of 90% or more (almost completely withered)) | 4 (Herbicidal ratio of 70% or higher and lower than 90%) | 3 (Herbicidal ratio of 40% or higher and lower than 70%) | 3 (Herbicidal ratio of 40% or higher and lower than 70%) | 5 (Herbicidal ratio of 90% or more (almost completely withered)) | 4 (Herbicidal ratio of 70% or higher and lower than 90%) | 0 (Herbicidal ratio of 5% or lower (almost no effect)) | 0 (Herbicidal ratio of 5% or lower (almost no effect)) | – | – | – | –
2 | CON=C(C)CC1CC(O)=C(c2c(C)cc(-c3ccc(Cl)cc3)cc2C)C1=O (mixture of isomers) [6-029] | 3 (Herbicidal ratio of 40% or higher and lower than 70%) | 5 (Herbicidal ratio of 90% or more (almost completely withered)) | 5 (Herbicidal ratio of 90% or more (almost completely withered)) | 5 (Herbicidal ratio of 90% or more (almost completely withered)) | 5 (Herbicidal ratio of 90% or more (almost completely withered)) | 3 (Herbicidal ratio of 40% or higher and lower than 70%) | 5 (Herbicidal ratio of 90% or more (almost completely withered)) | 4 (Herbicidal ratio of 70% or higher and lower than 90%) | 5 (Herbicidal ratio of 90% or more (almost completely withered)) | 4 (Herbicidal ratio of 70% or higher and lower than 90%) | 5 (Herbicidal ratio of 90% or more (almost completely withered)) | 5 (Herbicidal ratio of 90% or more (almost completely withered)) | 0 (Herbicidal ratio of 5% or lower (almost no effect)) | 0 (Herbicidal ratio of 5% or lower (almost no effect)) | 4 (Herbicidal ratio of 70% or higher and lower than 90%) | – | – | – | –
3 | CON=C(C)CC1CC(OC(=O)C(C)(C)c2ccc(Cl)cc2)=C(c2c(C)cc(C)cc2C)C1=O (stereo not drawn) [1-148] | 3 (Herbicidal ratio of 40% or higher and lower than 70%) | 5 (Herbicidal ratio of 90% or more (almost completely withered)) | 5 (Herbicidal ratio of 90% or more (almost completely withered)) | – | – | – | – | – | – | – | – | – | – | – | – | 5 (Herbicidal ratio of 90% or more (almost completely withered)) | 5 (Herbicidal ratio of 90% or more (almost completely withered)) | 0 (Herbicidal ratio of 5% or lower (almost no effect)) | L: Apera spica-venti, herbicidal effect (criteria 0-5) (Apera spica-venti): 5 (Herbicidal ratio of 90% or more (almost completely withered)); M: Abutilon theophrasti, herbicidal effect (criteria 0-5) (Abutilon theophrasti): 4 (Herbicidal ratio of 70% or higher and lower than 90%); N: Amaranthus retroflexus, herbicidal effect (criteria 0-5) (Amaranthus retroflexus): 2 (Herbicidal ratio of 20% or higher and lower than 40%); O: Chenopodium album, herbicidal effect (criteria 0-5) (Chenopodium album [3]): 1 (Herbicidal ratio of 5% or higher and lower than 20%); Q: Galium spurium, herbicidal effect (criteria 0-5) (Galium spurium): 3 (Herbicidal ratio of 40% or higher and lower than 70%); c: corn, effect on crop (criteria 0-5) (corn): 4 (Herbicidal ratio of 70% or higher and lower than 90%); d: soybean, effect on crop (criteria 0-5) (soybean): 3 (Herbicidal ratio of 40% or higher and lower than 70%); f: beet, effect on crop (criteria 0-5) (beet): 3 (Herbicidal ratio of 40% or higher and lower than 70%); g: rapeseed, effect on crop (criteria 0-5) (rapeseed): 5 (Herbicidal ratio of 90% or more (almost completely withered))
4 | CON=C(C)CC1CC(OC(=O)Cc2ccc(OC)cc2)=C(c2c(C)cc(C)cc2C)C1=O (stereo not drawn) [1-156] | 1 (Herbicidal ratio of 5% or higher and lower than 20%) | 5 (Herbicidal ratio of 90% or more (almost completely withered)) | 5 (Herbicidal ratio of 90% or more (almost completely withered)) | – | – | – | 5 (Herbicidal ratio of 90% or more (almost completely withered)) | 4 (Herbicidal ratio of 70% or higher and lower than 90%) | 3 (Herbicidal ratio of 40% or higher and lower than 70%) | 2 (Herbicidal ratio of 20% or higher and lower than 40%) | 3 (Herbicidal ratio of 40% or higher and lower than 70%) | 4 (Herbicidal ratio of 70% or higher and lower than 90%) | 3 (Herbicidal ratio of 40% or higher and lower than 70%) | 3 (Herbicidal ratio of 40% or higher and lower than 70%) | 4 (Herbicidal ratio of 70% or higher and lower than 90%) | 5 (Herbicidal ratio of 90% or more (almost completely withered)) | 5 (Herbicidal ratio of 90% or more (almost completely withered)) | 0 (Herbicidal ratio of 5% or lower (almost no effect)) | –
5 | CCOC(=O)C(C(=O)C(F)(F)F)C1CC(O)=C(c2c(C)cc(C)cc2C)C1=O (stereo not drawn) [2-010] | 0 (Herbicidal ratio of 5% or lower (almost no effect)) | 0 (Herbicidal ratio of 5% or lower (almost no effect)) | 0 (Herbicidal ratio of 5% or lower (almost no effect)) | 0 (Herbicidal ratio of 5% or lower (almost no effect)) | 0 (Herbicidal ratio of 5% or lower (almost no effect)) | 0 (Herbicidal ratio of 5% or lower (almost no effect)) | 0 (Herbicidal ratio of 5% or lower (almost no effect)) | 0 (Herbicidal ratio of 5% or lower (almost no effect)) | 0 (Herbicidal ratio of 5% or lower (almost no effect)) | 0 (Herbicidal ratio of 5% or lower (almost no effect)) | 0 (Herbicidal ratio of 5% or lower (almost no effect)) | 0 (Herbicidal ratio of 5% or lower (almost no effect)) | 0 (Herbicidal ratio of 5% or lower (almost no effect)) | 0 (Herbicidal ratio of 5% or lower (almost no effect)) | 0 (Herbicidal ratio of 5% or lower (almost no effect)) | – | – | – | –
